{"source": "patent US5719153A", "about": "“5H,8H-2-oxa-1,3,5,8-tetraaza-cyclopenta[b]-naphthalene-6,7-diones” (American Home Products Corporation, priority 1996, dated 1998)", "molecular_target": "AMPA receptor", "test": "displacement of [^3 H]-AMPA from its binding site on rat forebrain membranes", "conditions": "5 nmolar [^3 H]AMPA, 100 mmolar KSCN, 4° C., 1 hr", "experimental": "A representative compound of this invention was evaluated in a standard pharmacological test procedure to determine its ability to displace [^3 H]-α-amino-3-hydroxy-5-methylisoxazole-4-propionic acid (AMPA) from its binding site on rat forebrain membranes as described in a modified assay by D. E. Murphy, E. W. Snowhill and M. Williams (Characterization of quisqualate recognition sites in rat brain tissue using DL-[^3 H]α-amino-3-hydroxy-5-methylisoxazole-4-propionic acid (AMPA) and a filtration assay, Neurochemical Research, Vol. 12, No.9, 1987, pp. 775-782). Briefly, rats were decapitated and their forebrains (whole brain minus brain stem and cerebella) were homogenized in a volume (ml) of ice cold 0.32M sucrose equivalent to 15 times the forebrain weight (gram). The homogenate was centrifuged at 1,000 g for 10 minutes and the supernatant was recentrifuged at 20,000 g for 20 min. The pellet was resuspended in ice-cold distilled water and centrifuged at 8,000 g for 20 min. The supernatant and buffy coat were centrifuged at 48,000 g for 10 min. The pellet was then resuspended in the original volume of ice-cold 50 mmolar TRIS HCl (pH 7.4) and centrifuged at 48,000 g for 10 min. The pellet was resuspended in 50 mmolar TRIS HCl containing 0.04% Triton X-100 and the homogenate was incubated at 37° C. for 30 min. The homogenate was then centrifuged at 48,000 g for 10 min. […]"}
{"smiles": "O=c1[nH]c2cc3no[n+]([O-])c3cc2[nH]c1=O", "note": "[Example 1, 1-Oxy-5H,8H-2-oxa-1,3,5,8-tetraaza-cyclopenta[b]naphthalene-6,7-dione]", "values": [{"measurement": "IC50", "result": 7.6, "unit": "µM"}]}
